Here are results for 16 compounds from ChEMBL document CHEMBL1287745, “AdoHcy hydrolase of Trichomonas vaginalis: studies of the effects of 5'-modified adenosine analogues and related 6-N-cyclopropyl derivatives” (Bioorg Med Chem Lett, 2010).

≈ marks a conversion by molar mass, not a printed value. Where “and” joins values, the source holds several entries; their conditions need not be identical. Equal values may be shown once.

Test [1] relates to Trichomonas vaginalis. Put plainly: Antiparasitic activity against Trichomonas vaginalis T1 at […] after 24 hrs by hemocytometric analysis. Type of test: functional.
Test [2] has as its system Trypanosoma. The experiment in a line: Antimicrobial activity against Trypanosoma. Type of test: functional, organism-based.
For test [3], the system named is Trichomonas vaginalis. The experiment in a line: […] activity against Trichomonas vaginalis T1. Type of test: functional, organism-based.
The mark [4] stands for this setting: Trichomonas vaginalis, T1, read-out: IC50.

For `Nc1ncnc2c1ncn2[C@@H]1C[C@H](C(=O)O)[C@@H](O)[C@H]1O`, in test [1], the “growth inhibition (GI)” value is given as 36%.

For the compound `O[C@@H]1[C@H](O)[C@@H](C=C(Br)Br)O[C@H]1n1cnc2c(NC3CC3)ncnc21`, the 50% inhibitory concentration (IC50) result in test [2] is “Not Active”. Also, in test [1], the “growth inhibition (GI)” value amounted to 12%.

As to `Nc1ncnc2c1ncn2[C@@H]1C[C@H](CO)[C@@H](O)[C@H]1O` [ARISTEROMYCIN], the “growth inhibition (GI)” value in test [1] is listed as 95%. In test [3] (setting [4]), the 50% inhibitory concentration (IC50) was 10 µM and 3 µg/mL.

Turning to `Nc1ncnc2c1ncn2[C@@H]1O[C@H](/C=C\I)[C@@H](O)[C@H]1O`, the “growth inhibition (GI)” value in test [1] amounted to 81%. Further, the IC50 in test [3] (setting [4]) was 76 µM and 24 µg/mL.

For `COC(=O)[C@H]1O[C@@H](n2cnc3c(N)ncnc32)[C@H](O)[C@@H]1O`, the “growth inhibition (GI)” value in test [1] came out at 4%.

`Nc1ncnc2c1ncn2[C@@H]1O[C@H](/C=C/CCCC(=O)O)[C@@H](O)[C@H]1O`: the “growth inhibition (GI)” value in test [1] was 22%.

On to `Nc1ncnc2c1ncn2CCC(O)CO` (stereo not given), for which the “growth inhibition (GI)” value in test [1] is 11%.

In the case of `Nc1ncnc2c1ncn2[C@@H]1O[C@H](/C=C/C#CI)[C@@H](O)[C@H]1O`, the “growth inhibition (GI)” value in test [1] turned out to be 34%.

As for `Cc1ncc([N+](=O)[O-])n1CCO` [METRONIDAZOLE], the IC50 in test [3] (setting [4]) turned out to be 0.12 µg/mL (≈ 0.701 µM).

`O[C@@H]1[C@H](O)[C@@H](C=CI)O[C@H]1n1cnc2c(NC3CC3)ncnc21`: the concentration for half-maximal inhibition (IC50) is 12 µg/mL (≈ 28 µM) in test [2] (Trypanosoma, read-out: IC50) and “Not Active” in test [3]. The “growth inhibition (GI)” value in test [1] is given as 24%.

Consider `O[C@@H]1[C@H](O)[C@@H](C=CF)O[C@H]1n1cnc2c(NC3CC3)ncnc21`, for which the IC50 in test [2] (Trypanosoma, read-out: IC50) came to 19 µg/mL (≈ 59.1 µM). In addition, the “growth inhibition (GI)” value in test [1] stood at 10%.

Turning to `COC(=O)C(O)CCn1cnc2c(N)ncnc21` (stereo not given), the “growth inhibition (GI)” value in test [1] was found to be 16%.

Regarding `Nc1ncnc2c1ncn2[C@@H]1O[C@H](/C=C/I)[C@@H](O)[C@H]1O`, the “growth inhibition (GI)” value in test [1] was determined as 85%. Further, the 50% inhibitory concentration (IC50) in test [3] (setting [4]) is 60 µM and 19 µg/mL.

As to `Nc1ncnc2c1ncn2[C@@H]1O[C@H](C(=O)O)[C@@H](O)[C@H]1O` [5'-CARBOXY ADENOSINE], the “growth inhibition (GI)” value in test [1] was 17%.

For the compound `Nc1ncnc2c1ncn2[C@@H]1O[C@H](C=NO)[C@@H](O)[C@H]1O`, the “growth inhibition (GI)” value in test [1] is 93%. The half-maximal inhibitory concentration (IC50) in test [3] (setting [4]) was 40 µM and 11 µg/mL.

As to `ON=C[C@H]1O[C@@H](n2cnc3c(NC4CC4)ncnc32)[C@H](O)[C@@H]1O`, the IC50 result in test [2] was “Not Active”. Moreover, in test [1], the “growth inhibition (GI)” value was 41%.
